This is an account of results in US5559209A, “Regulator regions of G proteins” (The General Hospital Corporation, priority 1993, dated 1996).

Where no end group is shown, it is not given here.

In one test the target is T1, Gi3 (Bos taurus, UniProt Q3ZCA7).
T1 construct: was purified from bovine spleen and used in combination with 1.5-fold concentrated Gβγ; from tissue; host or cells: bovine spleen (Gi3 α); bovine brain (Gβγ)
The experiment in a line: GTPγS binding, peptide 14-induced Gi3 activation. In kind it is biochemical, bovine. As to conditions: 10 nM Gi3, 30 μM peptide 14, 4 min. The method, then:
(§1) Materials and Methods The in vitro assays described below utilize the couplone portion of each of a number of G-coupled receptors, instead of an intact receptor molecule, as a means for activating the corresponding anticouplone or intact G-protein. […]
(§2) GTPγS binding Assay--GTPγS binding to G proteins was assayed at 37° C. in 20 mM Hepes/NaOH buffer (pH 7.4) containing 130 μM MgCl2, 110 μM EDTA and 60 nM [^35 S]GTPγS, as described previously (Okamoto et al., 1990). […] The total amount of G protein was measured as maximal GTPγS binding at room temperature, as described (Okamoto et al., Cell 67:723-730, 1991a). […] Thus, the apparent first-order rate constant for GTPγS binding (kapp), which is equal to the slope of the tangent to the GTPγS binding curve at time 0 and represents the actual GTPγS binding rate, was calculated from this equation.
Peptide 14 is capable of activating Gi1 and Gi3 as well as Gi2 (Okamoto et al., 1990). The effect of ACGi2 on peptide 14-induced activation of these Gi proteins was examined as follows: 10 nM Gi1 (.quadrature.) or Gi3 (.diamond-solid.) was incubated with 30 μM peptide 14 in the presence of various concentrations of ACGi2 for 4 min, and GTPβS binding was measured. […]
(In general: Binding of GTPγS marks nucleotide exchange on a G protein.)

Test [1] has as its target T2, Gi2 (Bos taurus, UniProt A7MBH9).
T2 construct: trimeric Gi2 (i.e., Gi2 αβγ) purified from bovine brain to near homogeneity; from tissue; host or cells: bovine brain
The experiment in a line: GTPγS binding assay, peptide 14-induced Gi2 activation. In kind it is biochemical, bovine. How it is done: Materials and Methods The in vitro assays described below utilize the couplone portion of each of a number of G-coupled receptors, instead of an intact receptor molecule, as a means for activating the corresponding anticouplone or intact G-protein. Except as noted below, Gi2 used in this study was trimeric Gi2 (i.e., Gi2 αβγ) purified from bovine brain to near homogeneity (Katada et al., FEBS Lett. 213:353-358 (1987), stored in buffer A (20 mM hepes/NaOH (pH 7.4), 1 mM EDTA, and 0.7% CHAPS), and diluted≥10 fold for assays. The Gi2 used for the reconstitution experiment was trimeric Gi2 purified from bovine spleen to homogeneity and dissolved in buffer B (Morishita et al., 1989). Gi3 α (Morishita et al., Biochem. Biophys. Res. Commun. 172:249-255 (1990), was purified from bovine spleen and used in combination with 1.5-fold concentrated Gβγ (Katada et al., 1987). This preparation of Gi3 α was 10-20% contaminated by Gi1 α, but not by other G proteins. Trimeric Gs and Gβγ purified from bovine brain to near homogeneity (Katada et al., 1987) were also stored in buffer A.
(§3) GTPγS binding Assay--GTPγS binding to G proteins was assayed at 37° C. in 20 mM Hepes/NaOH buffer (pH 7.4) containing 130 μM MgCl2, 110 μM EDTA and 60 nM [^35 S]GTPγS, as described previously (Okamoto et al., 1990). GTPγS binding to polypeptides was negligible. The total amount of G protein was measured as maximal GTPγS binding at room temperature, as described (Okamoto et al., Cell 67:723-730, 1991a). [^35 S]GTPγS was purchased from DuPont-New England Nuclear. Binding of GTPγS to G proteins obeyed first-order kinetics according to the equation ln[(BT-B)/BT]=-kapp t, where B is the binding at time t and BT is the total binding observable at an infinite time. Thus, the apparent first-order rate constant for GTPγS binding (kapp), which is equal to the slope of the tangent to the GTPγS binding curve at time 0 and represents the actual GTPγS binding rate, was calculated from this equation.
In the experiment illustrated in FIG. 1A, 10 nM Gi2 was incubated with 30 μM peptide 14 (RVGLVRGEKARKGK; SEQ ID NO: 27), the couplone portion of the IGF-II receptor, in the presence of various concentrations of (.quadrature.) ACGi2 (DAVTDVIIKNNLKDC; SEQ ID NO: 3), (567 ) the control Gi2 α Glu297-Asp310 peptide (EAASYIQSKFEKLN; SEQ ID NO: 18), or (.diamond.) the control Gi2 α Lys346-Phe355 peptide (KNNLKDCGLF; SEQ ID NO: 19) for 5 min under the GTPγS binding assay conditions described above, and GTPγS binding to G proteins was measured. The effect of ACGi2 on Gi2 in the absence of peptide 14 is indicated by .box-solid.. Percent stimulation of GTPγS binding was calculated by subtracting the basal fractional binding and dividing by the stimulated fractional binding observed in the absence of ACGi2. The basal fractional binding (=0%) was 0.39 mol GTPγS binding/mol Gi /5 min (5 min^-1). The 100% increase represents the GTPγS binding of 0.85 (5 min^-1). Values in all figures represent the mean ±S.E. of three experiments.
To verify the notion that ACGi2 acts on Gi2 itself, and not on receptor sequences, two series of experiments were performed. First, the dose-response curve for peptide 14 action on Gi2 in the presence of various concentrations of ACGi2 was generated (FIG. 2A). Following incubation of 10 nM Gi2 with various concentrations of peptide 14 in the absence (.quadrature.) or presence of 10 μM (.diamond-solid.) or 30 μM (.box-solid.) ACGi2 for 5 min, GTPγS binding was assayed; fractional GTPγS binding to Gi2 is indicated in the figure.
The second series of experiments investigated the effect of ACGi2 on lower concentrations of Gi2 that had been activated by peptide 14 to the same extent (FIG. 2B). 1 nM Gi2 was incubated for 5 min with 3 μM peptide 14 in the presence of various concentrations of ACGi2, and GTPγS binding was measured. The fractional GTPγS binding at 0% and 100% in this experiment was 0.40 and 0.55 (5 min^-1), respectively. […]

The target in test [2] is T2, Gi2. Put plainly: GTPγS binding, MIII-induced Gi2 activation. Type of test: biochemical, bovine. As to conditions: 10 nM Gi2, 1 μM MIII, 5 min; read-out: IC50, attenuation of MIII-induced Gi2 activation. The method, then:
as §1, §2
The MIII peptide is a Gi /Go -activator region in the third intracellular loop of the G-coupled receptor termed M4 AChR (Okamoto et al., J. Biol. Chem. 267:8342-8346, 1992). […] In the experiments illustrated in FIG. 1D, 10 nM Go (.quadrature.) or Gi2 (.diamond-solid.) was incubated with 1 μM MIII for 2 or 5 min, respectively, and GTPγS binding was measured in the same manner as in FIG. 1A. […]

The target of a further test is Go (Homo sapiens, UniProt P09471). The experiment in a line: GTPγS binding, MIII-induced Go activation. Type of test: biochemical. As to conditions: 10 nM Go, 1 μM MIII, 2 min. How it is done:
as §3
The MIII peptide is a Gi /Go -activator region in the third intracellular loop of the G-coupled receptor termed M4 AChR (Okamoto et al., J. Biol. Chem. 267:8342-8346, 1992). This peptide has the sequence RNQVRKKRQMAARERKVTR (SEQ ID NO: 30). In the experiments illustrated in FIG. 1D, 10 nM Go (.quadrature.) or Gi2 (.diamond-solid.) was incubated with 1 μM MIII for 2 or 5 min, respectively, and GTPγS binding was measured in the same manner as in FIG. 1A. […]

T2 sequence (A7MBH9 2-355 limits assumed): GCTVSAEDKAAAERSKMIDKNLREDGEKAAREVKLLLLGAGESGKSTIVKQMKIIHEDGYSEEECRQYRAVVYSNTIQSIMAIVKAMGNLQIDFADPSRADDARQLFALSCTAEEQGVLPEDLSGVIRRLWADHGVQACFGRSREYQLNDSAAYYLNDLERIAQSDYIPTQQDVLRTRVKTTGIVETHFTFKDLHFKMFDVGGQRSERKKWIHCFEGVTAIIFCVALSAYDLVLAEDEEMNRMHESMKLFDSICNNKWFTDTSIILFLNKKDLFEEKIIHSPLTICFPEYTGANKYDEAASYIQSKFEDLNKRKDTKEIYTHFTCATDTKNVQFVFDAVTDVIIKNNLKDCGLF
T2 sequence (P62871 2-340 partner limits assumed): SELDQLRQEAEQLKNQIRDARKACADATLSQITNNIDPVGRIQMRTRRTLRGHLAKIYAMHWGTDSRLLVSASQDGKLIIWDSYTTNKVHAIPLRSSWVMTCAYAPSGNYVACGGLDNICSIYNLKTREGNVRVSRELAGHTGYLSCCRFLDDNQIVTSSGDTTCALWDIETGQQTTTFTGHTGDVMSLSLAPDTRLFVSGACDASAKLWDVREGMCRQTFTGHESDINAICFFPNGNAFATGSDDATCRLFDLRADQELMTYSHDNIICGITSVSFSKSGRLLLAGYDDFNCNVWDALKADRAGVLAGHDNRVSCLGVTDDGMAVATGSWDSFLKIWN
T2 sequence (P63212 2-68 partner limits assumed): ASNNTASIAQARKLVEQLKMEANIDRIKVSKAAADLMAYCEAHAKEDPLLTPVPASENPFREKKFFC
T1 sequence (Q3ZCA7 2-354 limits assumed): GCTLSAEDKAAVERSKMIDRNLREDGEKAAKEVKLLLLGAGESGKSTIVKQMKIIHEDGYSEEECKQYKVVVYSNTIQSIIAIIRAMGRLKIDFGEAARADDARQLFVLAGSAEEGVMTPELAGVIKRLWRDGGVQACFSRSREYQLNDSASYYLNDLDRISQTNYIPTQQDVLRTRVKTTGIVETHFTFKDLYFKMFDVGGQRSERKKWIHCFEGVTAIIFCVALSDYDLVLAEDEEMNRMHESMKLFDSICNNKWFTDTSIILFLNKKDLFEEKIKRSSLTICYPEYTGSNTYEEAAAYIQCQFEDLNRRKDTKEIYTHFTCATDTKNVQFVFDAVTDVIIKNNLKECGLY
T1 sequence (P62871 2-340 partner limits assumed): as the sequence (P62871 2-340 partner limits assumed) above
T1 sequence (P63212 2-68 partner limits assumed): as the sequence (P63212 2-68 partner limits assumed) above
Chain of Go (P09471 2-354 limits assumed): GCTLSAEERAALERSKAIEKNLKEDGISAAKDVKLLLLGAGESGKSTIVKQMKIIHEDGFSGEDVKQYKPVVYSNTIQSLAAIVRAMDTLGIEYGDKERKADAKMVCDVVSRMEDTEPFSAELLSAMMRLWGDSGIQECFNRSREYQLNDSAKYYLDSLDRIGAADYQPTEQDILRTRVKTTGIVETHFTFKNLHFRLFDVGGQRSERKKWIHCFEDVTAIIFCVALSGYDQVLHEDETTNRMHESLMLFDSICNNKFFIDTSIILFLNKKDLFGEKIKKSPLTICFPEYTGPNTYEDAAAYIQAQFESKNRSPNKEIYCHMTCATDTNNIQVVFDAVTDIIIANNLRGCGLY
Chain of Go (P62873 2-340 partner limits assumed): as the sequence (P62871 2-340 partner limits assumed) above
Chain of Go (P59768 2-68 partner limits assumed): as the sequence (P63212 2-68 partner limits assumed) above

On to “DAVTDVIIKNNLKDC [ACGi2, DAVTDVIIKNNLKDC]”, for which the “maximal inhibition of peptide 14-induced Gi3 activation” value on Gi3 is “≈ 60%”. Besides, the concentration for half-maximal inhibition (IC50) (in general, the point on the concentration scale where inhibition reaches its midpoint) is roughly 3 µM on Gi2 [1] (10 nM Gi2, 30 μM peptide 14, 5 min, read-out: IC50, inhibition of peptide 14-induced GTPγS binding to Gi2); 10 µM on Gi2 [2]; roughly 30 µM on Go. Further, the inhibition (as a rule, the percentage by which the read-out fell short of the control) at 3 µM at Gi2 [1] (at 3 μM ACGi2 (so in the source), read-out: inhibition of stimulation of Gi2) was found to be 100%.
